Reference: patent US8222008B2, “Methods and compositions for treating cancer” (The Administrators of The Tulane Educational Fund, priority 2003, dated 2012)

Key:
normal fibroblasts [1] = test: Apoptosis after lysosomal cystine loading, CaspACE assay (FIG. 1); format: cell-based, human; conditions: 0.5 mM CDME 1 hour pretreatment, then TNF-a or UV, 16 hours in CDME-containing medium; control rate 7.2+/−1.3%
Method: 1. The CaspACE Assay • CaspACE (Promega) is an FITC-conjugated cell-permeable form of the pan-caspase inhibitor zVAD-Fmk, which binds to activated caspase(s). Cells were incubated in FITC-VAD-Fmk-containing medium (10 μM for 30 minutes at 37° C.), washed, and then fixed in 10% buffered formalin (30 minutes at room temperature) before analysis. The cells were visually enumerated by fluorescence microscopy, scoring a minimum of five fields (250 to 300 cells) for fluorescence in triplicate followed by counting all cells in the same field by light microscopy, with a minimum of 750 cells scored per condition. The apoptosis rate is the total number of cells that fluoresce divided by the total cells in the field.
(§1) Normal fibroblast lysosomes were loaded with cystine by the addition of 0.5 mM cystine dimethylester (CDME, Sigma) to normal culture medium for 1 hour before treatment (Pisoni, R L, et al, 1992 Somat. Cell. Mol. Genet., 18:1-6). The cells were treated with apoptotic triggers, leaving CDME in the medium to prevent lysosomal cystine loss, and then analyzed for apoptosis.
(§2) The lysosomal cystine content of normal fibroblasts was also altered as follows. Normal fibroblasts also at passage 7-13 were pretreated with 0.5 mM CDME for 1 hour, increasing the cystine content of their lysosomes to the cystinotic range (0.47 to 1.95 nmol of cystine per mg of protein). […]

normal fibroblasts [2] = test: Phase micrographs, apoptotic morphology; format: cell-based, human; conditions: normal cells with CDME added, TNF-α exposure
Excerpt: Phase micrographs (not shown) were also obtained of normal fibroblasts after TNF-α exposure alone, in normal fibroblasts in CDME, and in nephropathic fibroblasts after TNF-α exposure alone. Typical apoptotic morphology was observed, i.e., typical blebs in the plasma membrane are seen after treatment with TNF-a in both normal and cystinotic cell lines and the modulating effects of MEA and CDME was seen.

normal fibroblasts [3] = test: Lysosomal cystine content, cystine binding protein assay; format: cell-based, human
Method: (§3) Intracellular lysosomal free cystine was determined using a cystine binding protein (CBP) assay (Oshima et al, 1974 J. Biol. Chem., 249:6033-6039). CBP was procured from Riverside Scientific. The assay has a sensitivity of 0.1 μM. Total cell protein was determined by a modification of the Lowry method (Lowry O. et al 1951 J. Biol. Chem., 193:265-275). Statistical analyses were performed using paired t test for means with SSPS for Windows. Results are mean+/−1.0 SD (FIG. 3).
as §1, §2
In another experiment, the cystine content was decreased in cystinotic cells from 2.3 to 0.5 nmols cystine/10^6 cells by pretreatment with MEA before incubation in cystine-free and serum-free Ham F12 medium. […] Cells were stained with CaspACE and analyzed. […]

kidney of black mice = test: Kidney cystine concentration after CDME injection (CBP and BCA assays); format: in vivo, mouse
Method: as §3
CDME was evaluated in mice for cystine generation in response to varying doses as follows: A stock solution of CDME in PBS was prepared having a concentrations of 1.8 g CDME/500 μL PBS. The stock solution was diluted to generate solutions for administration. 500 μL of diluted solutions were injected intraperitoneally into black mice (body mass ˜0.03 kg). All injections were performed in duplicate.
Following administration of the solutions of Table 6, the endogenous cystine concentrations in two organs (kidney and liver) were examined for the 6 mice, i.e., the CDME-injected mice as well as black, heterozygous, and wild-type control mice. The analysis was performed using the cystine binding protein CBP assay of Example 1 and the Bicinchoninic Acid BCA assay (Pierce Biotechnology) for total protein concentration.

RPTE cells = test: Annexin V and propidium iodide staining; format: cell-based, human; conditions: TNF-a after loading with 0.1 mM CDME
Method: 3. The Annexin V Assay • Annexin V-propidium iodide (PI) staining was performed as described by the manufacturer (Annexin V Fluos kit directions, Roche Laboratories) one time after TNF-a stimulation. D. Cystine Binding Protein Assay
Lysosomal cystine loading of RPTE cells was accomplished by exposure to 0.1 mM or 0.25 CDME in normal REGM for 1 hour before treatment with or without apoptotic triggers.
Exposure of RPTE cells to TNF-a after cystine loading by exposure to 0.1 mM CDME and analysis by Annexin V and Propidium iodide staining yielded 4.3% Annexiv V positive cells and zero PI positive cells at 1 h after exposure, 9.5% and 1.7% at 3 hours and 25.3% and 9.1% at 6 hours. The proportion of necrotic RPTE cells increased with duration of exposure to CDME, but remained substantially less than the number of those that are apoptotic.

For `COC(=O)[C@@H](N)CSSC[C@H](N)C(=O)OC` [CDME, cystine dimethyl ester], the “apoptotic rate after exposure to CDME” value (normal fibroblasts [1]) was 18.7+/−5.4%, the “apoptotic morphology in phase micrographs” value (normal fibroblasts [2]) was “Enhanced apoptosis” and the “cystine content after treatment with CDME” value (normal fibroblasts [3]; increased from 0.4, before serum withdrawal) was 1.3 nmols cystine/10^6 cells. The “cystine content after pre-exposure to CDME” value (normal fibroblasts [3]; normal content <0.1 nmol/mg protein, UV light experiment) was 1.95 nmol/mg protein, the “Kidney Cystine Concentration” value (kidney of black mice; 10,000 mg CDME/kg intraperitoneally, Mouse #3) was 97 nmol cystine/mg protein and the “increase in intralysosomal cystine” value (kidney of black mice; CDME-injected mice versus controls) was ~100 fold. The “Annexin V positive cells” value (RPTE cells; 1 h after exposure) was 4.3%, the PI positive cells (RPTE cells; 1 h after exposure) was “zero” and the “Annexin V positive cells” value (RPTE cells; 3 hours) was 9.5%. For the same compound, the PI positive cells (RPTE cells; 3 hours) was 1.7%, the “Annexin V positive cells” value (RPTE cells; 6 hours) was 25.3% and the PI positive cells (RPTE cells; 6 hours) was 9.1%.
